Measured values from patent US12338256B2, “Aza-tetracyclic oxazepine compounds and uses thereof” (Genentech, Inc., priority 2022, dated 2025).

Legend:
Type in all cases: cell-based
[1] = system: AsPC-1 (homozygous mutant KRAS G12D human pancreatic cell line); assay: KRAS 3D-Cell Proliferation Assay, AsPC-1 (Example 503); conditions: Homo sapiens, ASPC1, 168 h, AsPC-1 3D culture, 7 days, CellTiter-Glo 3D; read-out: Prolif AsPC-1 3D ATP IC50
How it was run: (§1)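 IC50 values derive from 4-parameter Hill fits of normalized luminescence, where DMSO sets 0% and 1 μM staurosporine 100% inhibition. 3D cultures in RPMI-1640 with 10% fetal bovine serum were exposed to compound for 7 days before CellTiter-Glo 3D lysis.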

[2] = system: HPAC (homozygous mutant KRAS G12D human pancreatic cell line); assay: KRAS 3D-Cell Proliferation Assay, HPAC (Example 503); conditions: Homo sapiens, HPAC, 168 h, HPAC 3D culture, 7 days, CellTiter-Glo 3D; read-out: Prolif HPAC 3D ATP IC50
How it was run: as §1

[3] = system: H1975 (KRAS wild type human lung adenocarcinoma cell line); assay: KRAS 3D-Cell Proliferation Assay, H1975 (Example 503); conditions: Homo sapiens, NCI-H1975, 168 h, H1975 3D culture, 7 days, CellTiter-Glo 3D; read-out: Prolif H1975 3D ATP IC50
How it was run: as §1

Row | Compound | IC50 [1] | IC50 [2] | IC50 [3]
1 | Cc1nc(N)cc(-c2nc3c4c(nc(OCC5(CN6CCOCC6)CC5)nc4c2F)N2C[C@H]4CC[C@H](N4)[C@H]2[C@H](C)O3)c1C(F)(F)F [Compound 210, 4-((5S,5aS,6S,9R)-1-Fluoro-5-methyl-12-((1-(morpholinomethyl)cyclopropyl)methoxy)-5a,6,7,8,9,10-hexahydro-5H-4-oxa-3,10a,11,13,14-pentaaza-6,9-methanonaphtho[1,8-ab]heptalene-2-yl)-6-methyl-5-(trifluoromethyl)pyridin-2-amine] | 3.6 nM | 1.81 nM | 868 nM
2 | Cc1nc(N)cc(-c2nc3c4c(nc(OCC56CCN5CC(F)(F)C6)nc4c2F)N2C[C@H]4CC[C@H](N4)[C@H]2[C@H](C)O3)c1C(F)(F)F (stereo partly drawn) [Compound 214, 4-((5S,5aS,6S,9R)-12-((3,3-Difluoro-1-azabicyclo[3.2.0]heptan-5-yl)methoxy)-1-fluoro-5-methyl-5°,6,7,8,9,10-hexahydro-5H-4-oxa-3,10°,11,13,14-pentaaza-6,9-methanonaphtho[1,8-ab]heptalen-2-yl)-6-methyl-5-(trifluoromethyl)pyridin-2-amine] | 25.4 nM | 8.04 nM | 7030 nM
3 | Cc1nc(N)cc(-c2nc3c4c(nc(OC[C@@]56CCCN5C[C@H](F)C6)nc4c2F)N2C[C@H]4CC[C@H](N4)[C@H]2[C@H](C)O3)c1C(F)(F)F [Compound 215, 4-((5S,5aS,6S,9R)-1-Fluoro-12-(((2R,7aS)-2-fluorotetrahydro-1H-pyrrolizin-7°(5H)-yl)methoxy)-5-methyl-5°,6,7,8,9,10-hexahydro-5H-4-oxa-3,10°,11,13,14-pentaaza-6,9-methanonaphtho[1,8-ab]heptalen-2-yl)-6-methyl-5-(trifluoromethyl)pyridin-2-amine] | 7.8 nM | 2.5 nM | 831 nM
4 | Cc1nc(N)cc(-c2nc3c4c(nc(OC[C@@]56CCCN5CC5(CC5(F)F)C6)nc4c2F)N2C[C@H]4CC[C@H](N4)[C@H]2[C@H](C)O3)c1C(F)(F)F (stereo partly drawn) [Compound 216, 4-((5S,5aS,6S,9R)-12-(((7a′S)-2,2-Difluorodihydro-1′,3′H-spiro[cyclopropane-1,2′-pyrrolizin]-7a′(5′H)-yl)methoxy)-1-fluoro-5-methyl-5a,6,7,8,9,10-hexahydro-5H-4-oxa-3,10a,11,13,14-pentaaza[6,9]methanonaphtho[1,8-ab]heptalene-2-yl)-6-methyl-5-(trifluoromethyl)pyridin-2-amine] | 0.6 nM | 0.893 nM | 161 nM
5 | Cc1c(F)c(N)c(F)c(-c2nc3c4c(nc(OCC5(CN6CCOCC6)CC5)nc4c2F)N2C[C@H]4CC[C@H](N4)[C@H]2[C@H](C)O3)c1C(F)(F)F [Compound 224, 2,6-Difluoro-3-((5S,5aS,6S,9R)-1-fluoro-5-methyl-12-((1-(morpholinomethyl)cyclopropyl)methoxy)-5a,6,7,8,9,10-hexahydro-5H-4-oxa-3,10a,11,13,14-pentaaza-6,9-methanonaphtho[1,8-ab]heptalen-2-yl)-5-methyl-4-(trifluoromethyl)aniline] | 3.5 nM | 2.72 nM | 711 nM
6 | Cc1c(F)c(N)c(F)c(-c2nc3c4c(nc(OC[C@@]56CCCN5CC5(CC5(F)F)C6)nc4c2F)N2C[C@H]4CC[C@H](N4)[C@H]2[C@H](C)O3)c1C(F)(F)F (stereo partly drawn) [Compound 225, 3-((5S,5aS,6S,9R)-12-(((7′S)-2,2-Difluorodihydro-1′H,3′H-spiro[cyclopropane-1,2′-pyrrolizin]-7a′(5′H)-yl)methoxy)-1-fluoro-5-methyl-5a,6,7,8,9,10-hexahydro-5H-4-oxa-3,10a,11,13,14-pentaaza[6,9]methanonaphtho[1,8-ab]heptalene-2-yl)-2,6-difluoro-5-methyl-4-(trifluoromethyl)aniline] | 2.9 nM | 1.19 nM | 561 nM
7 | Cc1cc(N)c(F)c(-c2nc3c4c(nc(OCC5(CN6CCOCC6)CC5)nc4c2F)N2C[C@H]4CC[C@H](N4)[C@H]2[C@H](C)O3)c1C(F)(F)F [Compound 226, 2-Fluoro-3-((5S,5aS,6S,9R)-1-fluoro-5-methyl-12-((1-(morpholinomethyl)cyclopropyl)methoxy)-5a,6,7,8,9,10-hexahydro-5H-4-oxa-3,10a,11,13,14-pentaaza-6,9-methanonaphtho[1,8-ab]heptalene-2-yl)-5-methyl-4-(trifluoromethyl)aniline] | 1.2 nM | 0.86 nM | 568 nM
8 | Cc1nc(N)cc(-c2nc3c4c(nc(OC[C@@]56CCCN5C[C@H](F)C6)nc4c2F)N2C[C@H]4CC[C@H](N4)[C@H]2[C@H](C(F)(F)F)O3)c1C(F)(F)F [Compound 242, 4-((5R,5aS,6S,9R)-1-Fluoro-12-(((2R,7aS)-2-fluorotetrahydro-1H-pyrrolizin-7a(5H)-yl)methoxy)-5-(trifluoromethyl)-5a,6,7,8,9,10-hexahydro-5H-4-oxa-3,10a,11,13,14-pentaaza-6,9-methanonaphtho[1,8-ab]heptalen-2-yl)-6-methyl-5-(trifluoromethyl)pyridin-2-amine] | 7.8 nM | 5.11 nM | 1040 nM
9 | Cc1c(F)c(N)cc(-c2nc3c4c(nc(OC[C@@H]5CC[C@H]6COCCN65)nc4c2F)N2C[C@H]4CC[C@H](N4)[C@H]2[C@H](C(F)(F)F)O3)c1C(F)(F)F [Compound 245, 2-Fluoro-5-((5R,5aS,6S,9R)-1-fluoro-12-(((6S,8aS)-hexahydro-1H-pyrrolo[2,1-c][1,4]oxazin-6-yl)methoxy)-5-(trifluoromethyl)-5a,6,7,8,9,10-hexahydro-5H-4-oxa-3,10a,11,13,14-pentaaza-6,9-methanonaphtho[1,8-ab]heptalene-2-yl)-3-methyl-4-(trifluoromethyl)aniline] | 3.6 nM | 4.13 nM | 739 nM
10 | Cc1c(F)c(N)cc(-c2nc3c4c(nc(OC[C@@]56CCCN5C[C@H](F)C6)nc4c2F)N2C[C@H]4CC[C@H](N4)[C@H]2[C@H](C(F)(F)F)O3)c1C(F)(F)F [Compound 247, 2-Fluoro-5-((5R,5aS,6S,9R)-1-fluoro-12-(((2R,7aS)-2-fluorotetrahydro-1H-pyrrolizin-7a(5H)-yl)methoxy)-5-(trifluoromethyl)-5a,6,7,8,9,10-hexahydro-5H-4-oxa-3,10a,11,13,14-pentaaza-6,9-methanonaphtho[1,8-ab]heptalene-2-yl)-3-methyl-4-(trifluoromethyl)aniline] | 1 nM | 1.64 nM | 643 nM
11 | Cc1c(F)c(N)cc(-c2nc3c4c(nc(OC[C@@]56CCCN5C[C@H](F)C6)nc4c2F)N2C[C@H]4CC[C@H](N4)[C@@H]2[C@@H](C(F)(F)F)O3)c1C(F)(F)F [Compound 248, 2-Fluoro-5-((5S,5aR,6S,9R)-1-fluoro-12-(((2R,7aS)-2-fluorotetrahydro-1H-pyrrolizin-7a(5H)-yl)methoxy)-5-(trifluoromethyl)-5a,6,7,8,9,10-hexahydro-5H-4-oxa-3,10a,11,13,14-pentaaza-6,9-methanonaphtho[1,8-ab]heptalene-2-yl)-3-methyl-4-(trifluoromethyl)aniline] | 27.9 nM | 12.5 nM | 244 nM
12 | Cc1c(F)c(N)cc(-c2nc3c4c(nc(OCC5(CN6CCOCC6)CC5)nc4c2F)N2C[C@H]4CC[C@H](N4)[C@H]2[C@H](C(F)(F)F)O3)c1C(F)(F)F [Compound 249, 2-Fluoro-5-((5R,5aS,6S,9R)-1-fluoro-12-((1-(morpholinomethyl)cyclopropyl)methoxy)-5-(trifluoromethyl)-5a,6,7,8,9,10-hexahydro-5H-4-oxa-3,10a,11,13,14-pentaaza-6,9-methanonaphtho[1,8-ab]heptalene-2-yl)-3-methyl-4-(trifluoromethyl)aniline] | 1.1 nM | 1.37 nM | 417 nM
13 | C#Cc1cccc2cc(O)cc(-c3nc4c5c(nc(OC[C@@]67CCCN6C[C@H](F)C7)nc5c3F)N3C[C@H]5CC[C@H](N5)[C@H]3[C@H](C(F)(F)F)O4)c12 [Compound 251] | 1.9 nM | 2.3 nM | 234 nM
14 | Cc1nc(N)cc(-c2nc3c4c(nc(OC[C@@H]5CC[C@H]6COCCN65)nc4c2F)N2C[C@H]4CC[C@H](N4)[C@H]2[C@H](C(F)(F)F)O3)c1C(F)(F)F [Compound 253, 4-((5R,5aS,6S,9R)-1-Fluoro-12-(((6S,8aS)-hexahydro-1H-pyrrolo[2,1-c][1,4]oxazin-6-yl)methoxy)-5-(trifluoromethyl)-5a,6,7,8,9,10-hexahydro-5H-4-oxa-3,10a,11,13,14-pentaaza-6,9-methanonaphtho[1,8-ab]heptalene-2-yl)-6-methyl-5-(trifluoromethyl)pyridin-2-amine] | 64.6 nM | 19.8 nM | 5080 nM
15 | Cc1nc(N)cc(-c2nc3c4c(nc(OC[C@@]56CCCN5CC5(CC5(F)F)C6)nc4c2F)N2C[C@H]4CC[C@H](N4)[C@H]2[C@H](C(F)(F)F)O3)c1C(F)(F)F (stereo partly drawn) [Compound 254, 4-((5R,5aS,6S,9R)-12-(((7a′S)-2,2-Difluorodihydro-1′H,3′H-spiro[cyclopropane-1,2′-pyrrolizin]-7a′(5′H)-yl)methoxy)-1-fluoro-5-(trifluoromethyl)-5a,6,7,8,9,10-hexahydro-5H-4-oxa-3,10a,11,13,14-pentaaza[6,9]methanonaphtho[1,8-ab]heptalene-2-yl)-6-methyl-5-(trifluoromethyl)pyridin-2-amine] | 2.5 nM | 1.86 nM | 139 nM
